# Test results published in publication PMC7686308, “Overcoming the blood–brain barrier by Annexin A1-binding peptide to target brain tumours” (British Journal of Cancer, 2020).
# “Also recorded” adds a separate entry of the source. Peptide text beside a SMILES is read from it. * marks the point of attachment. X1 = CCc1c2c(nc3ccc(OC(=O)C4CCC(CNC(=O)C5CCC(CN6C(=O)CC(*)C6=O)CC5)CC4)cc13)-c1cc3c(c(=O)n1C2)COC(=O)[C@]3(O)CC
# What was measured:
# C6 cells = test: Cytotoxicity on C6 cells (CellTiter Glo); type: cell-based, rat
# Experimental: (§1) Drug concentration (OM) Drug concentration ( nM) […]
# (§2) Supplementary Fig 7 . Cytotoxicity of peptide-conjugated SN38, free peptide s and unconjugated SN-38 and irinotecan (CPT-11) on C6 and B16 cells cultured in vitro. Rat glioma C6 and mouse melanoma B16 cells were treated with reagents shown along the top panels at the concentration indicated and cultured for 2 days. Cell viability was determined by a CellTiter Glo (Promega) assay. The IC50 of each reagent was determined using GraphPad Prism program. N.D.: not determined.
# [1] = LC-MS/MS analysis of SN38 in brain tumours; type: in vivo, mouse; settings: mice intravenously injected with IF7C(RR)-SN38
# [2] = system: C6-Luc brain and subcutaneous tumours; test: C6-Luc dual-tumour model in NOD-SCID mice; type: in vivo, rat tumour cells in NOD-SCID mice
# Experimental: (§3) C6-Luc cells (5 × 10^4 suspended in 2 μl PBS) were injected into C57BL/6 mouse brain striatum using a stereotaxic frame as described previously.[21] Seven days later, mice underwent imaging for luciferase-expressing tumours. To do so, 100 μl luciferin (30 mg/ml PBS) was injected peritoneally. Mice were then anesthetised under isoflurane gas (20 ml/min) supplemented with oxygen (1 ml/min) and placed under a camera equipped with a Xenogen IVIS 200 imager at both the SBP and AIST animal facilities. Photon numbers were measured for 1–10 sec or for 1 min. For the dual-tumour model, C6-Luc cells were similarly injected into the brain of NOD-SCID mice. When a brain tumour became detectable by IVIS imager, C6-Luc cells (2 × 10^5 suspended in 100 μl PBS) were injected subcutaneously into the dorsal flank of the same mice. Photon numbers in brain and subcutaneous tumours were measured using the IVIS imager. The dual-tumour model was also produced using B16-Luc cells in the isogeneic C57BL/6 mouse. B16-Luc cells (5 × 10^4) were injected into brains of 8–10-weeks-old C57BL/6 female mice as described above for C6-Luc cells. When brain tumours became detectable, B16-Luc cells (2 × 10^5 cells) were injected subcutaneously into the dorsal flank of the same mouse. […]
# Next, to compare drug dosages required to suppress growth of brain versus subcutaneous tumours in vivo, we undertook experiments with a dual-tumour model, in which a single SCID mouse received C6-Luc cells both in brain and under the skin (Fig. 4a, Supplementary Fig. 8A). Mice were then injected intravenously with IF7C(RR)-SN38 and tumour growth in both locations was assessed in vivo by photon number.
# Fig. 4 Effect of IF7C(RR)-SN38 on the dual-tumour model mice. a Dual-tumour model was established with C6-Luc cells in NOD-SCID mice. […] Growth of B16-Luc cells were monitored as in a similar manner as in a, followed by intravenous injection with either IF7C(RR)-SN38 (7.0 μmoles/kg), irinotecan (CPT-11) (50 μmoles/kg) or buffer control daily for 6 days. […] Statistical analysis was assessed by Student’s t-test.
# B16-Luc cells = test: B16-Luc rechallenge of brain tumour-recovered mice; type: in vivo, mouse (C57BL/6); settings: mice recovered from brain B16-Luc tumours after treatment; 4 days after s.c. injection
# Experimental: (§4) The presence of tumour-infiltrating lymphocytes, especially CD8^+ cytotoxic T cells, is correlated with better prognosis of various cancers.[32],[33] To assess possible involvement of cytotoxic T cells in an antitumour response by host mice, we injected two isogenic cell lines, B16-Luc and LL/2-Luc, into naïve C57BL/6 mice and also into C57BL/6 mice that recovered from brain B16-Luc tumours following IF7C(RR)-SN38 treatment. When these cells were injected subcutaneously in a naïve mouse, both lines formed tumours (Fig. 6a, left).
# (§5) Fig. 6 Immunological rejection of the cancer cells from the mouse recovered from brain tumour by IF7C(RR)-SN38 therapy. a Growth of two syngeneic cancer lines in naïve and brain tumour-recovered mice 4 days after subcutaneous injection of LL/2-Luc or B16-Luc cells. b Immunohistochemistry with anti-CD8 antibody of B16-Luc cells at subcutaneous injection sites, 20 h after B16-Luc cell injection. Scale bars: 100 μm. c Quantitative analysis of CD8^+ cells in subcutaneous injection sites.
# C6-Luc brain tumours = test: C6-Luc brain tumour in nude mice, Solutol HS15 formulation; type: in vivo, rat tumour cells in nude mice; settings: 2.5 μmoles/kg i.v. daily for 7 days, 10% Solutol HS15
# Experimental: as §3, with “cells.” for “cells. When brain tumours became detectable, B16-Luc cells (2 × 10^5 cells) were injected subcutaneously into the dorsal flank of the same mouse.”
# Fig. 5 Therapeutic effect of IF7C(RR)-SN38 formulated with Solutol HS15. a Effect of IF7C(RR)-SN38 on B16-Luc brain tumours in C57BL/6 mice. b Effect of IF7C(RR)-SN38 on C6-Luc brain tumours in nude mice. […] Statistical analysis was assessed by Student’s t-test.
# B16 cells = test: Cytotoxicity on B16 cells (CellTiter Glo); type: cell-based, mouse
# Experimental: as §1, §2
# CD8+ T cells = test: CD8+ cell infiltration at B16-Luc injection site (immunohistochemistry); type: in vivo, mouse (C57BL/6); settings: recovered C57BL/6 mice; 20 h after B16-Luc s.c. injection (naïve: 0.2 cells/HPF)
# Experimental: as §5
# [3] = system: B16-Luc brain and subcutaneous tumours; test: B16-Luc dual-tumour model in C57BL/6 mice; type: in vivo, mouse (C57BL/6)
# Experimental: (§6) C6-Luc cells (5 × 10^4 suspended in 2 μl PBS) were injected into C57BL/6 mouse brain striatum using a stereotaxic frame as described previously.[21] Seven days later, mice underwent imaging for luciferase-expressing tumours. To do so, 100 μl luciferin (30 mg/ml PBS) was injected peritoneally. Mice were then anesthetised under isoflurane gas (20 ml/min) supplemented with oxygen (1 ml/min) and placed under a camera equipped with a Xenogen IVIS 200 imager at both the SBP and AIST animal facilities. Photon numbers were measured for 1–10 sec or for 1 min. For the dual-tumour model, C6-Luc cells were similarly injected into the brain of NOD-SCID mice. When a brain tumour became detectable by IVIS imager, C6-Luc cells (2 × 10^5 suspended in 100 μl PBS) were injected subcutaneously into the dorsal flank of the same mice. Photon numbers in brain and subcutaneous tumours were measured using the IVIS imager. The dual-tumour model was also produced using B16-Luc cells in the isogeneic C57BL/6 mouse. B16-Luc cells (5 × 10^4) were injected into brains of 8–10-weeks-old C57BL/6 female mice as described above for C6-Luc cells. When brain tumours became detectable, B16-Luc cells (2 × 10^5 cells) were injected subcutaneously into the dorsal flank of the same mouse.
# (§7) IF7C(RR)-SN38 was injected intravenously through the tail vein into tumour-bearing mice once photon number of C6-Luc brain tumour reached 5 × 10^4, which usually occurred after 2 weeks. IF7C(RR)-SN38 (142 μg or 0.0567 μmoles) dissolved in 10 μl dimethylsulfoxide (DMSO) diluted with 100 μl of 50% Cremophore EL in ethanol plus 90 μl PBS was injected intravenously through the tail vein. As the average body weight of a mouse was 18 g, IF7C(RR)-SN38 dose per injection was 3.15 μmoles/kg. For B16-Luc brain tumours, IF7C(RR)-SN38 formulated with Cremophore EL was used at the dosage 7.0 μmoles/kg. Irinotecan (CPT-11), a water soluble SN38 prodrug, was dissolved in PBS and intravenously injected into mice at 50 μmoles /kg. In another set of experiments, brain tumour-bearing mice were treated with IF7C(RR)-SN38 (100 μg or 0.0412 μmoles) dissolved in 10 μl DMSO followed by dilution with 100 μl 10% Solutol HS15 in water. In that case, drug dosage was 2.5 μmoles/kg. Similarly formulated C(RR)-SN38 served as control.
# Fig. 4 Effect of IF7C(RR)-SN38 on the dual-tumour model mice. a Dual-tumour model was established with C6-Luc cells in NOD-SCID mice. C6-Luc cells were grown both in brain and under the skin of mice. When tumours in brain and subcutaneous grew by showing photon number more than 2×10^4, IF7C(RR)-SN38 (3.15 μmoles/kg) was injected intravenously daily through tail vein for 9 days. b Effect of IF7C(RR)-SN38 on a dual-tumour model with B16-Luc melanoma cells in C57BL/6 mice. Growth of B16-Luc cells were monitored as in a similar manner as in a, followed by intravenous injection with either IF7C(RR)-SN38 (7.0 μmoles/kg), irinotecan (CPT-11) (50 μmoles/kg) or buffer control daily for 6 days. The drug was diluted in Cremophore EL. In each a and b, error bars denote means ± SEM. Statistical analysis was assessed by Student’s t-test.
# LL/2-Luc cells = test: LL/2-Luc rechallenge of brain tumour-recovered mice; type: in vivo, mouse (C57BL/6); settings: mice recovered from brain B16-Luc tumours after treatment; 4 days after s.c. injection
# Experimental: as §4, §5
# B16-Luc brain tumours = test: B16-Luc brain tumour in C57BL/6 mice, Solutol HS15 formulation; type: in vivo, mouse (C57BL/6); settings: 2.5 μmoles/kg i.v. daily for 7 days
# Experimental: as §6, §7
# Fig. 5 Therapeutic effect of IF7C(RR)-SN38 formulated with Solutol HS15. a Effect of IF7C(RR)-SN38 on B16-Luc brain tumours in C57BL/6 mice. b Effect of IF7C(RR)-SN38 on C6-Luc brain tumours in nude mice. In these experiments, drug dosage was 2.5 μmoles/kg each for IF7C(RR)-SN38 or C(RR)-SN38 (control), diluted with 10% Solutol HS15 in water and administered daily for 7 days. Note that the B16 brain tumours continued shrinking after ceasing administration of IF7C(RR)-SN38 in C57BL/6 mice. In each a and b, error bars denote means ± SEM. Statistical analysis was assessed by Student’s t-test.
# [4] = 3.15 μmoles/kg i.v. daily, 9 days, Cremophore EL
# [5] = 7.0 μmoles/kg i.v. daily, 6 days, Cremophore EL
smiles,measurement,setting,value
CCc1c2c(nc3ccc(OC(=O)C4CCC(CNC(=O)C5CCC(CN6C(=O)CC(SC[C@H](NC(=O)[C@H](CCCNC(=N)N)NC(=O)[C@H](CCC(N)=O)NC(=O)[C@H](Cc7c[nH]c8ccccc78)NC(=O)[C@H](CC(C)C)NC(=O)[C@H](CC(C)C)NC(=O)[C@H](Cc7ccccc7)NC(=O)[C@@H](N)[C@@H](C)CC)C(=O)N[C@@H](CCCNC(=N)N)C(=O)N[C@@H](CCCNC(=N)N)C(=O)O)C6=O)CC5)CC4)cc13)-c1cc3c(c(=O)n1C2)COC(=O)[C@]3(O)CC (stereo partly drawn) [IF7C(RR)-SN38] (H-IFLLWQRC(X1)RR-OH; N-terminus and C-terminus assumed),logIC50,"C6 cells; C6, 2 days, CellTiter Glo, GraphPad Prism",1.812
same,cytotoxic activity compared with free SN38,"C6 cells; in vitro, C6 cells",comparable to those of free SN38
same,SN38 in brain tumours,[1],did not detect SN38 in brain tumours
same,brain tumour growth (photon number),[2]; [4],significantly suppressed tumour growth relative to buffer controls
same,subcutaneous tumour growth (photon number),[2]; [4],significantly suppressed tumour growth relative to buffer controls
same,brain versus subcutaneous tumour effect,"[2]; 3.15 μmoles/kg, C6-Luc, NOD-SCID",effect of IF7C(RR)-SN38 on brain tumours is comparable to that on subcutaneous tumours
same,B16-Luc tumour formation after s.c. rechallenge,B16-Luc cells,B16-Luc tumours did not appear
same,C6-Luc brain tumour growth,C6-Luc brain tumours,suppressed the tumour growth
same,complete disappearance of C6-Luc brain tumours,C6-Luc brain tumours,did not promote complete disappearance of brain tumours
same,logIC50,"B16 cells; B16, 2 days, CellTiter Glo, GraphPad Prism",2.171
same,cytotoxic activity compared with free SN38,"B16 cells; in vitro, B16 cells",comparable to those of free SN38
same,CD8+ cell infiltration at injection sites,CD8+ T cells,92.2 cells/HPF
same,brain tumour growth (photon number),[3]; [5],significantly antagonised growth of both brain and subcutaneous tumours compared to buffer controls
same,subcutaneous tumour growth (photon number),[3]; [5],significantly antagonised growth of both brain and subcutaneous tumours compared to buffer controls
same,brain versus subcutaneous tumour effect,"[3]; 7.0 μmoles/kg, B16-Luc, C57BL/6",effect of IF7C(RR)-SN38 on brain tumours is comparable to that on subcutaneous tumours
same,LL/2-Luc tumour formation after s.c. challenge,LL/2-Luc cells,LL/2-Luc tumours grew
same,B16-Luc brain tumour response during the first week,B16-Luc brain tumours; 10% Solutol HS15,tumours began shrinking during the first week of daily injections
same,"B16-Luc brain tumour, final outcome",B16-Luc brain tumours; 10% Solutol HS15,completely disappeared; also recorded: complete disappearance of brain tumours
same,survival after cessation of treatment without signs of B16-Luc cell growth,B16-Luc brain tumours; 10% Solutol HS15,more than 3 months
same,therapeutic effect with Solutol HS15 relative to Cremophore EL,B16-Luc brain tumours; 10% Solutol HS15 in water,significantly improved
same,"B16-Luc brain tumour response, second week without injection",B16-Luc brain tumours; then no drug,continued shrinking during the second week without drug injection
